# In ChEMBL document CHEMBL1201862, “PubChem BioAssay data set” (2004):
# Activity calls are given as the source filed them.
# Columns and labels:
# [1] = target: Trypsin (Sus scrofa, UniProt P00761); assay: porcine trypsin inhibitors, dose response, selectivity assay for Rce1 protease inhibitor project, biochemical, quenched peptide fluorescence, cherry-pick (AID 488789)
# [2] = target: CAAX prenyl protease 2 (Homo sapiens, UniProt Q9Y256); assay: human Rce1 protease inhibitors, dose response, biochemical, yeast membranes, quenched-peptide fluorescence, cherry-pick (AID 588849)
# [3] = target: T1, Voltage-gated N-type calcium channel alpha-1B subunit/Amyloid beta A4 precursor protein-binding family A member 1 (Homo sapiens, UniProt Q00975+Q02410); assay type: protein assay
# [4] = target: T1, Voltage-gated N-type calcium channel alpha-1B subunit/Amyloid beta A4 precursor protein-binding family A member 1; assay type: protein assay; remark: listed apart in the source
# [5] = target: DNA dC->dU-editing enzyme APOBEC-3A (Homo sapiens, UniProt P31941); assay: APOBEC3A DNA deaminase inhibitors, dose response, biochemical (AID 504722); assay type: functional
# [6] = target: DNA dC->dU-editing enzyme APOBEC-3G (Homo sapiens, UniProt Q9HC16); assay: Dose Response confirmation of small molecule APOBEC3G DNA Deaminase Inhibitors via a fluorescence-based single-stranded DNA deaminase assay. [Related pubchem assays (depositor defined):AID493012, AID493028]; assay type: functional
# [7] = target: Beta-adrenergic receptor kinase 1 (Homo sapiens, UniProt P25098); assay: aptamer displacement from bead-bound GRK2 – biochemical, cherry pick 1, bead flow cytometry, dose response (AID 504500)
# [8] = target: T2, Apoptotic protease-activating factor 1 (Homo sapiens, UniProt O14727); assay: activation of Apaf-1 mediated apoptosis – fluorescent, uHTS hits, dose response (AID 588554); assay type: functional
# T2 sequence (O14727 whole entry): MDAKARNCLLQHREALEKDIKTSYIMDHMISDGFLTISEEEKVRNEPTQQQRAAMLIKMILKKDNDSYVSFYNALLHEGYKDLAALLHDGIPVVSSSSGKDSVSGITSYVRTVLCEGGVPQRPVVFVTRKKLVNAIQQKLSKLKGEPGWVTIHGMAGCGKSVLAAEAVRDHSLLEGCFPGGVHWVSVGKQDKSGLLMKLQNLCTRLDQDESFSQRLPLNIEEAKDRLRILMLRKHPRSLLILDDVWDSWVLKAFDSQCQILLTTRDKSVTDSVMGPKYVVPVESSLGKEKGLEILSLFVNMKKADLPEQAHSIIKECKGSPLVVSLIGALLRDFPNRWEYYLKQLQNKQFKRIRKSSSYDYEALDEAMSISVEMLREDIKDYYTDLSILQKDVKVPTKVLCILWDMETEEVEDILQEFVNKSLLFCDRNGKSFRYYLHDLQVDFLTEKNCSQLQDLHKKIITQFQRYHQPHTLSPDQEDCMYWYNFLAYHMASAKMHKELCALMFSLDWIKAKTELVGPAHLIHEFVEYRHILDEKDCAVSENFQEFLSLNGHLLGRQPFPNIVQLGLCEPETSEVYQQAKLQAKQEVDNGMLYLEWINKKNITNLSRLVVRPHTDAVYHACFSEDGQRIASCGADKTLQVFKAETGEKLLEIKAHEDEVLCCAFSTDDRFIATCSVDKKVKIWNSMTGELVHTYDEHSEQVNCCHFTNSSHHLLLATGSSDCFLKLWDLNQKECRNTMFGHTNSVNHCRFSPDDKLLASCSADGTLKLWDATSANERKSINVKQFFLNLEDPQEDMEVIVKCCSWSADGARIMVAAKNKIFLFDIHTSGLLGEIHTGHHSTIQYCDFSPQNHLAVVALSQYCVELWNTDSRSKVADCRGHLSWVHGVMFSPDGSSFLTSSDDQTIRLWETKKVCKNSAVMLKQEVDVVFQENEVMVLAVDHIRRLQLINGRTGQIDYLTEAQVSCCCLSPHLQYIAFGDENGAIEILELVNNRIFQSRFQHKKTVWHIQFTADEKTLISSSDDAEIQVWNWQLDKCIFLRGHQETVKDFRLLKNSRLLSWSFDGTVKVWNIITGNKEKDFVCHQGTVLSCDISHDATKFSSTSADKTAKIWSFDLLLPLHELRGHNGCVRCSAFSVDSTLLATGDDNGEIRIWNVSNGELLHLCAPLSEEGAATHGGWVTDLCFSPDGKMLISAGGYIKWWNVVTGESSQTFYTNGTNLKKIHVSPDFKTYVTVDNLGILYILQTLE
# [9] = target: T3, Carboxy-terminal domain RNA polymerase II polypeptide A small phosphatase 1 (Homo sapiens, UniProt Q9GZU7); assay: inhibitors of CTDSP1, concentration-response testing, biochemical assay, absorbance-based, actives from ultra-high-throughput screening (AID 540297); assay type: functional
# T3 sequence (Q9GZU7 whole entry): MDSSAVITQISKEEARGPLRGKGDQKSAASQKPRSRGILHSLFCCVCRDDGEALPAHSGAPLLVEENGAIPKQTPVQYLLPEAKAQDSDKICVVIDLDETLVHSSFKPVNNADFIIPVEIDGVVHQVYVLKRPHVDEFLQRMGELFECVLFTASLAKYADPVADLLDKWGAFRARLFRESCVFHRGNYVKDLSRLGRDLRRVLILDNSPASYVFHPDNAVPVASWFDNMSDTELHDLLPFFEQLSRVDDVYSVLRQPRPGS
# [10] = target: Glucose-6-phosphate 1-dehydrogenase (Homo sapiens, UniProt P11413); assay: human G6PD enzyme inhibitors, dose response, selectivity assay for P. falciparum G6PD inhibitor project, biochemical, fluorescence (AID 504792); assay type: functional
# [11] = tested on: Vero; assay: Vero cell cytotoxicity, cytotoxicity control for flavivirus capping enzyme inhibitors (AID 588742); assay type: functional; settings: Chlorocebus sabaeus
# [12] = target: Genome polyprotein (dengue virus type 2, UniProt P29990); assay: Dengue-2 NS5 methyltransferase inhibitors, primary screen, biochemical, confirmation dose response (AID 588689); assay type: functional
# [13] = target: Albumin (Bos taurus, UniProt P02769); assay: Counterscreen for inhibitors of T-cell receptor (TCR)-CD3 interaction: Fluorescence-based biochemical high throughput dose response assay to identify inhibitors of T-cell receptor (TCR)-CD3 interaction using a TAMRA-labeled BSA probe.; assay type: functional
# [14] = target: T4, Tyrosyl-DNA phosphodiesterase 2 (Homo sapiens, UniProt O95551); assay: human TDP2 enzyme inhibitors, dose response, biochemical, epi absorbance, IC50 (AID 743297)
# T4 sequence (O95551 whole entry): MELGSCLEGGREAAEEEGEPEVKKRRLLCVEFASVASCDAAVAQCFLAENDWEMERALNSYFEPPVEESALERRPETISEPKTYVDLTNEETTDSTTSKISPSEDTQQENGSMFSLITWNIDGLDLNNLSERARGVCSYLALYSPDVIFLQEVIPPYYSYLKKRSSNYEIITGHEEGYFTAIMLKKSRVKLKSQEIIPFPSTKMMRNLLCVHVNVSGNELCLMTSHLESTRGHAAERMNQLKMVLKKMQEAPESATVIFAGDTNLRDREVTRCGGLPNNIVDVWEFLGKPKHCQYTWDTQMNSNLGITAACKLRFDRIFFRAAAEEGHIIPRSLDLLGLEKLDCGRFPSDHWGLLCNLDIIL
# [15] = CFTR ΔF508 corrector activity in bronchial cells, dose response, human bronchial epithelial cells, plate reader, cherry-pick, two tests (AID 743267); assay type: functional, cell-based
# [16] = tested on: Candida albicans; assay: growth inhibition of resistant C. albicans, dose response, CaCi-8 strain, fluconazole, dry powder, set 4 (AID 488950); assay type: functional, organism-based
# [17] = tested on: Candida albicans; assay: growth inhibition of azole-resistant C. albicans, dose response, CaCi-8 strain, Alamar Blue, dry powder, set 2 (AID 488909); assay type: functional, organism-based
# [18] = tested on: Jurkat; assay: SAR Analysis of small molecule inhibitors of […] specific antigen receptor-induced NF-kB activation in a Jurkat cell line using a luminescence assay - Set 3. [Related pubchem assays (depositor defined):AID435022, AID435025, AID465]; assay type: functional, cell-based; settings: Homo sapiens
# [19] = tested on: HEK293; assay: SAR Analysis of small molecule inhibitors of B-cell specific antigen receptor-induced NF-kB activation in a HEK-293T cell line using a luminescence assay - Set 2. [Related pubchem assays (depositor defined):AID435022, AID435025, AID489021]; assay type: functional, cell-based; settings: Homo sapiens
# [20] = tested on: HEK293; assay: cytotoxicity in HEK293T NF-kB-Luc cells, SAR follow-up, cytotoxicity control for NF-kB activator project, cell-based, resazurin fluorescence (AID 493251); assay type: functional; settings: Homo sapiens
# [21] = target: T5, Phospholipase D1 (Homo sapiens, UniProt Q13393); assay: PLD1 inhibitor potency in cells, dose response (AID 602151); assay type: functional;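 also: cellular PLD1 assay in Calu-1 cells stimulated with PMA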
# [22] = target: T6, Phospholipase D2 (Homo sapiens, UniProt O14939); assay: PLD2 inhibitor potency in cells, dose response (AID 602147); assay type: functional;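 also: cellular assay in HEK293 cells overexpressing GFP-tagged PLD2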
# [23] = target: Hexokinase-1 (Homo sapiens, UniProt P19367); assay: HK1 enzyme inhibition by HKDC1 hits, SAR follow-up, selectivity assay for HKDC1 inhibitor project, biochemical, set 2, resazurin fluorescence coupled readout (AID 588356); assay type: functional
# [24] = target: T7, Hexokinase HKDC1 (Homo sapiens, UniProt Q2TB90); assay: HKDC1 hexokinase inhibitors, SAR follow-up, biochemical, set 2 (AID 588355); assay type: functional
# T7 sequence (Q2TB90 whole entry): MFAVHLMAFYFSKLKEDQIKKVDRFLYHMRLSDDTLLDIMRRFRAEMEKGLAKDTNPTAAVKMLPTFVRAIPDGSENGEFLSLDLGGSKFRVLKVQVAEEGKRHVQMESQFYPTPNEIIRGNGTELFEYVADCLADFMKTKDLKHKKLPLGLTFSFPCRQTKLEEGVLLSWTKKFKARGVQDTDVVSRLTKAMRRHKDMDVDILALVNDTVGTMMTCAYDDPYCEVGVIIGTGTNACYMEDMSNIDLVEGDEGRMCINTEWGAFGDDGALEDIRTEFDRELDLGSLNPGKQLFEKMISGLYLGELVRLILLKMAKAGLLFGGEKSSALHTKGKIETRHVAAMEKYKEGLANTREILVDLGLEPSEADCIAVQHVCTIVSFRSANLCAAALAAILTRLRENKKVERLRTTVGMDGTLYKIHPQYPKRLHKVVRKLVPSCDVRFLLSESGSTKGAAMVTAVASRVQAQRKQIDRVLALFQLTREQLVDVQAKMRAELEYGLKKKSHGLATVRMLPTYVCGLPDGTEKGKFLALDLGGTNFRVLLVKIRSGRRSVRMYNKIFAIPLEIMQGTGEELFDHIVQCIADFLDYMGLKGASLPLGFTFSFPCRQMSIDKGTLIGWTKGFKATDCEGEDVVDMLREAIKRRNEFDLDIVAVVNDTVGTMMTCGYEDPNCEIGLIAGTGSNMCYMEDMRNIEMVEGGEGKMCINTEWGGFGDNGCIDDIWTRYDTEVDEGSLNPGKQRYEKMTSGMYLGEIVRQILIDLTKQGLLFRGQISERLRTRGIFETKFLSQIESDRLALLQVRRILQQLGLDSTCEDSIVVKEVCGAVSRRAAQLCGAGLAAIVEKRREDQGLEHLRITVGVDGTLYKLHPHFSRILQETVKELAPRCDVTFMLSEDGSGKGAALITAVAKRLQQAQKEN
# [25] = target: T5, Phospholipase D1; assay: PLD1 purified enzyme concentration response. [Related pubchem assays (depositor defined):AID588854]; assay type: functional
# [26] = target: T6, Phospholipase D2; assay: PLD2 purified enzyme concentration response. [Related pubchem assays (depositor defined):AID588854]; assay type: functional
# [27] = tested on: H4; assay: Inhibitors of Prion Protein 5' UTR mRNA Measured in Cell-Based System Using Plate Reader - 2078-01_Inhibitor_Dose_DryPowder_Activity. [Related pubchem assays (depositor defined):AID488894]; assay type: functional; settings: Homo sapiens
# T1 sequence (Q00975 whole entry): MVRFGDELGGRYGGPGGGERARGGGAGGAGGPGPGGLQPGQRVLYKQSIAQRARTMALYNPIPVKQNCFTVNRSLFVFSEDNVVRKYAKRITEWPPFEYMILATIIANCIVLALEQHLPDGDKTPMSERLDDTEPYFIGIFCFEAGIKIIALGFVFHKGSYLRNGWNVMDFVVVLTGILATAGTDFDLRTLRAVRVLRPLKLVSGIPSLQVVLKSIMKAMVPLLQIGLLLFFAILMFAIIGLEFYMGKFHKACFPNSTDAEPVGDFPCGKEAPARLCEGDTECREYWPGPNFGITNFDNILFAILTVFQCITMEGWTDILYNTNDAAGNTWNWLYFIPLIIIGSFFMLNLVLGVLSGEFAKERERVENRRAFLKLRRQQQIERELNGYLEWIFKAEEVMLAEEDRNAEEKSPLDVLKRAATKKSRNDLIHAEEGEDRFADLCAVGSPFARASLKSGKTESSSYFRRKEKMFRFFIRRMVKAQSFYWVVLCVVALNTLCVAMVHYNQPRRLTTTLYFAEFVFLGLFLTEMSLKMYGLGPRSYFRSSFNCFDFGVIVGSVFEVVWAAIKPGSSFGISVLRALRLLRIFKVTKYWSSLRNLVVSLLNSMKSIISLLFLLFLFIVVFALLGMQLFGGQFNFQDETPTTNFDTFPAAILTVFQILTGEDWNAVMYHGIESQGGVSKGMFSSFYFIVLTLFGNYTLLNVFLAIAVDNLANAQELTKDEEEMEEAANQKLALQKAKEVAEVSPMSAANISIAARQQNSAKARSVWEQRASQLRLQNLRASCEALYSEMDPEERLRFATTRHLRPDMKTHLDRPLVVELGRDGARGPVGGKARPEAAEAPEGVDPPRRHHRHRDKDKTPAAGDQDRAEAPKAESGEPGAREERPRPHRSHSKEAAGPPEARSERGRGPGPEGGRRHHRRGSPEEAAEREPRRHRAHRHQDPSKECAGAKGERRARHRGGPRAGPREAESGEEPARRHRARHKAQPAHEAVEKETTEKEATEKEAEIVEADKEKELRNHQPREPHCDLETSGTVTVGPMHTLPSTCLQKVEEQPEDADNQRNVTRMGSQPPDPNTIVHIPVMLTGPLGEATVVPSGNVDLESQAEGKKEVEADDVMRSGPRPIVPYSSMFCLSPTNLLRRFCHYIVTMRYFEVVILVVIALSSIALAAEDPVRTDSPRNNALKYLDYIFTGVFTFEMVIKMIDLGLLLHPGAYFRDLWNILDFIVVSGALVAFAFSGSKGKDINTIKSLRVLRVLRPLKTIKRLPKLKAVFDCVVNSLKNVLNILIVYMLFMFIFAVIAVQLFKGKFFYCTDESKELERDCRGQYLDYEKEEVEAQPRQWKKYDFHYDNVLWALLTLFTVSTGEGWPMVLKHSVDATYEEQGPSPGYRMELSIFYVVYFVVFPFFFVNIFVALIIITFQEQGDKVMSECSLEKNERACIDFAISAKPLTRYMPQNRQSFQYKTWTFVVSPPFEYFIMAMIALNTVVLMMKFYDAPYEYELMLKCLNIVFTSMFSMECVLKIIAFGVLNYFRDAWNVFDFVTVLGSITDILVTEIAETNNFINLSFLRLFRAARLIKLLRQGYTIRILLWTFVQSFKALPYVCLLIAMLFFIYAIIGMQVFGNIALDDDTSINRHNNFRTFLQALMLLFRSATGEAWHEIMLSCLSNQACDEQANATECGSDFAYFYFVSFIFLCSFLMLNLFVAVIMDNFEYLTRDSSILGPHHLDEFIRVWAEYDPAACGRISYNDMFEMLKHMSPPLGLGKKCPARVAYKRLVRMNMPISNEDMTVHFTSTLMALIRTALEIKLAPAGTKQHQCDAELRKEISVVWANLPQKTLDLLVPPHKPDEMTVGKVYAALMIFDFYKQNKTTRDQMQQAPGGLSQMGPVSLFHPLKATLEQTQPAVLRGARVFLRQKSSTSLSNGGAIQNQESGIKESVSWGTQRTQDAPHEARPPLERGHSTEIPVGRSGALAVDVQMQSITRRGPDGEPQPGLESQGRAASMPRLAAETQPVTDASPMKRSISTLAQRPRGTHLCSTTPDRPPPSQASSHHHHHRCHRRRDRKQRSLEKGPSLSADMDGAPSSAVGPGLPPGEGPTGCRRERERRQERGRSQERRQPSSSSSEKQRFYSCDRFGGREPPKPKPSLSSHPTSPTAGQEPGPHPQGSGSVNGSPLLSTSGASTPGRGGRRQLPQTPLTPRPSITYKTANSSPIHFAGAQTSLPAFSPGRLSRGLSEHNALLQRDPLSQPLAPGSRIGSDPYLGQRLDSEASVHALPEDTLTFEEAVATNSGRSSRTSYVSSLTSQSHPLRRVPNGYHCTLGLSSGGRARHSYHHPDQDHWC
# T1 sequence (Q02410 whole entry): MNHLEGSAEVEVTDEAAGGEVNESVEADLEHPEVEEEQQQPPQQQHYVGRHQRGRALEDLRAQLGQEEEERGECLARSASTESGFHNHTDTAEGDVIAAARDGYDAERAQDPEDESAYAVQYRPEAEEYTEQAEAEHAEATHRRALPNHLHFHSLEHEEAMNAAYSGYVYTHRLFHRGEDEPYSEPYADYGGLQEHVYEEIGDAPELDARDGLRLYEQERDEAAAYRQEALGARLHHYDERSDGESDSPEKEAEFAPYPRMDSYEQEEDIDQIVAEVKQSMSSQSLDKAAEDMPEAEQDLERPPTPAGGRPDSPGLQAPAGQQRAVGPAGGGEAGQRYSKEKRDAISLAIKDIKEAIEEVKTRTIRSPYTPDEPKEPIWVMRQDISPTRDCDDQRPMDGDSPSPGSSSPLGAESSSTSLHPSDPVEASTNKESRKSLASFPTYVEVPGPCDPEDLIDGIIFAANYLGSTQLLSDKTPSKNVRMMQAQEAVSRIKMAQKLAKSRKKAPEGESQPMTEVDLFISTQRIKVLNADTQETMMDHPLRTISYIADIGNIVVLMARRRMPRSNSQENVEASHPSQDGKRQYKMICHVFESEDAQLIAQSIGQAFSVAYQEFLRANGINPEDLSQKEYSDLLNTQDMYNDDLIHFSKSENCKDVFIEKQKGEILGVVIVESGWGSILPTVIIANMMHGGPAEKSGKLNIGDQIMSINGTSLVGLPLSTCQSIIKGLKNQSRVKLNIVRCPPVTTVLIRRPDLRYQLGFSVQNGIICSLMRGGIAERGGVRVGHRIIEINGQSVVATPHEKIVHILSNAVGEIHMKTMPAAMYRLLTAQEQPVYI
# T5 sequence (Q13393 whole entry): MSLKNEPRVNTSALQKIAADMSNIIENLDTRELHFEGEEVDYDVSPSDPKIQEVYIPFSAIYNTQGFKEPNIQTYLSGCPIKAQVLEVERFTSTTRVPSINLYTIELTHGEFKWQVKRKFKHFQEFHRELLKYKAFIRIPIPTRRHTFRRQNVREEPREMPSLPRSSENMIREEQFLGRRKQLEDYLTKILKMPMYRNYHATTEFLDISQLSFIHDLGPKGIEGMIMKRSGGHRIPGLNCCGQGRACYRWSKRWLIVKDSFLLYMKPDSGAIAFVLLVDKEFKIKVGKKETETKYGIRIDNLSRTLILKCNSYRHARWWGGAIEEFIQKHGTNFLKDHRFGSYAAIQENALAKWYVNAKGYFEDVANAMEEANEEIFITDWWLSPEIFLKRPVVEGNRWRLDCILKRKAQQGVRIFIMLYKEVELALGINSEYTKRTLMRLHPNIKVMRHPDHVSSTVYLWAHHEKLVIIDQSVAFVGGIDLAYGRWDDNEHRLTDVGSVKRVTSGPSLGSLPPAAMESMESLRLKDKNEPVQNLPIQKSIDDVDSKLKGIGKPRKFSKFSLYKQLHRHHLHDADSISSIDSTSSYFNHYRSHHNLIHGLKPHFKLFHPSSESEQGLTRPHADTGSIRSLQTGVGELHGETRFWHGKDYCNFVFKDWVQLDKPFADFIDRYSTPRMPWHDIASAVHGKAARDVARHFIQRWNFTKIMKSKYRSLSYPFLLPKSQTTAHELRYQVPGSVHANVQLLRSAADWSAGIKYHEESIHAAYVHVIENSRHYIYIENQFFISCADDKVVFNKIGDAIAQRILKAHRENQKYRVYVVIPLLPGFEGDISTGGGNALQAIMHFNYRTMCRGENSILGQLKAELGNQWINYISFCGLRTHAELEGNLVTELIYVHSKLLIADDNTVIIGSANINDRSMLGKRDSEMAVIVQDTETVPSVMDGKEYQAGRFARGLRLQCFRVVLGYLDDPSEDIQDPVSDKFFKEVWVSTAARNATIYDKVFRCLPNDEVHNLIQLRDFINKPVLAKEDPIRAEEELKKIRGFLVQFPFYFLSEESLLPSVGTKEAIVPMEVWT
# Sequence of Beta-adrenergic receptor kinase 1 (P25098 whole entry): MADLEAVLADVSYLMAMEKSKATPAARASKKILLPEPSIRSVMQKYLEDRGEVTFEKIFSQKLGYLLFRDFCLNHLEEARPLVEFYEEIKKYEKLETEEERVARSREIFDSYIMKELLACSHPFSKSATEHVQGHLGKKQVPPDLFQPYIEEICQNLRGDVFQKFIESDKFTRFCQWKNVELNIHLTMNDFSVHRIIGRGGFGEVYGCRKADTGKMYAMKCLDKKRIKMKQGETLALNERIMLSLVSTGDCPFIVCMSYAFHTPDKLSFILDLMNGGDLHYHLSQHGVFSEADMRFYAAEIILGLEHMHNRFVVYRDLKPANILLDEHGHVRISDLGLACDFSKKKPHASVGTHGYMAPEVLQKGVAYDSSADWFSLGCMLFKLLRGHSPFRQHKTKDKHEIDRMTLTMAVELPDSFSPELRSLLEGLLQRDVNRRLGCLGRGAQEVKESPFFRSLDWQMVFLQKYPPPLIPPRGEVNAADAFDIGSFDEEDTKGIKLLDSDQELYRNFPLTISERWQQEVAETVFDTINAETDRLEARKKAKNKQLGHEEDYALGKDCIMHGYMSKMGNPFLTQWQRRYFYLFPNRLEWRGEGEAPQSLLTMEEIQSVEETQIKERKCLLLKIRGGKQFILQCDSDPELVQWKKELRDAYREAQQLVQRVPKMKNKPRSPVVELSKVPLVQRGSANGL
smiles,measurement,setting,value
Cc1ccnc(SCc2cn3c(C)cc(C)nc3n2)n1,AC50,[1],20.2 µM (active)
same,AC50,[2],> 100 µM (inactive)
C=C(C)C(=O)Nc1cccc(C2=NOC3(C2)C[C@@H](C(N)=O)N(C(=O)CCCCC)C3)c1 (some centres not stated),IC50,[3],10.2 µM (active)
same,IC50,[4],> 50 µM (inactive)
same,IC50,[5],> 100 µM (inactive)
same,IC50,[6],2.82 µM (active)
same,EC50,[7],0.11 µM (active)
same,EC50,[8],2.96 µM (active)
same,IC50,[9],0.9 µM (active)
O=C1C(=NCCc2cc(Br)c(O)c(Br)c2)C=C(O)c2cccnc21,IC50,[10],25.2 µM (inactive)
same,CC50,[11],2.03 µM (active)
same,IC50,[12],12.2 µM (active)
same,IC50,[13],> 94.2 µM (inactive)
same,IC50,[14],5.04 µM (active)
same,AC50,[15],3.33 µM (active)
CCCC(=O)N1CCN(c2ccnc3cc(Cl)ccc23)CC1,AC50,[16],16.9 µM (active)
same,AC50,[17],5.59 µM (active)
CCOc1ccc(-c2nc(CSCC(=O)NC3CCCC3)c(C)o2)cc1,IC50,[18],37.6 µM (inactive)
same,IC50,[19],26.4 µM (inactive)
same,IC50,[20],64.2 µM (inactive)
C[C@@H](CN1CCC2(CC1)C(=O)NCN2c1ccc(F)c(F)c1)NC(=O)c1cc2cc(F)ccc2[nH]1,IC50,[21],0.005 µM (active)
same,IC50,[22],0.032 µM (active)
CC(=O)NC1C(=O)N(CCN2CCOCC2)c2ccccc21 (configuration not stated),IC50,[23],> 80 µM (inactive)
same,IC50,[24],> 80 µM (inactive)
O=C(NCCN1CCC2(CC1)C(=O)NCN2c1ccc(Br)cc1)c1cc2cc(F)ccc2[nH]1,IC50,[25],5 µM (active)
same,IC50,[26],0.028 µM (active)
COc1ccc(NC=C2C(=O)c3ccccc3C2=O)c(OC)c1,AC50,[27],1.75 µM (active)
